Measurements: ChEMBL document CHEMBL1201862, “PubChem BioAssay data set” (2004)
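All cell lines were grown in 96-well plates and treated with compound for 48 hours. Abbreviation: GI50, concentration required for 50% inhibition of growth.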 The source made the active and inactive calls. No stated cut-off is given here; in the data, active = GI50 up to about 1.1 µM and inactive = higher.

Legend:
Assay in all cases: growth of human tumour cells (NCI), 48 h
[1] = system: K562
[2] = system: HCT-15
[3] = system: KM-20L2
[4] = system: NCI-H23
[5] = system: A498
[6] = system: HOP-62
[7] = system: SK-MEL-28
[8] = system: DMS-273
[9] = system: CAKI-1
[10] = system: NCI-H226
[11] = system: COLO 205
[12] = system: NCI-H460
[13] = system: HCT-116
[14] = system: EKVX
[15] = system: OVCAR-4
[16] = system: OVCAR-5
[17] = system: SF-539
[18] = system: SK-OV-3
[19] = system: HCC 2998
[20] = system: HOP-18
[21] = system: NCI/ADR-RES
[22] = system: U-251
[23] = system: OVCAR-8
[24] = system: HL-60
[25] = system: KM12
[26] = system: OVCAR-3
[27] = system: IGROV-1
[28] = system: UACC-62
[29] = system: LOX IMVI
[30] = system: MOLT-4
[31] = system: SNB-75
[32] = system: SF-268
[33] = system: CCRF-CEM
[34] = system: SW-620
[35] = system: M19-MEL
[36] = system: MCF7
[37] = system: HT-29
[38] = system: SN12C
[39] = system: HOP-92
[40] = system: RPMI-8226
[41] = system: UO-31
[42] = system: SK-MEL-5
[43] = system: SK-MEL-2
[44] = system: SNB-78
[45] = system: XF498
[46] = system: UACC-257
[47] = system: RXF 393
[48] = system: SNB-19
[49] = system: DLD-1
[50] = system: Malme-3M
[51] = system: SF-295
[52] = system: A549
[53] = system: 786-0
[54] = system: TK-10
[55] = system: LXFL 529
[56] = system: M14
[57] = system: NCI-H522
[58] = system: DMS-114
[59] = system: ACHN

COCOc1ccc(OC)cc1
GI50 [1]: > 100 µM (inactive)
GI50 [2]: > 100 µM
GI50 [3]: > 100 µM (inactive)
GI50 [4]: > 100 µM (inactive)
GI50 [5]: > 100 µM (inactive)
GI50 [6]: > 100 µM (inactive)
GI50 [7]: > 100 µM (inactive)
GI50 [8]: > 100 µM (inactive)
GI50 [9]: > 100 µM (inactive)
GI50 [10]: > 100 µM (inactive)
GI50 [11]: > 100 µM (inactive)
GI50 [12]: > 100 µM (inactive)
GI50 [13]: > 100 µM (inactive)
GI50 [14]: > 100 µM (inactive)
GI50 [15]: > 100 µM (inactive)
GI50 [16]: > 100 µM (inactive)
GI50 [17]: > 100 µM (inactive)
GI50 [18]: > 100 µM (inactive)
GI50 [19]: > 100 µM (inactive)
GI50 [20]: > 100 µM (inactive)
GI50 [21]: > 100 µM (inactive)
GI50 [22]: > 100 µM (inactive)
GI50 [23]: > 100 µM (inactive)
GI50 [24]: > 100 µM (inactive)
GI50 [25]: > 100 µM (inactive)
GI50 [26]: > 100 µM (inactive)
GI50 [27]: > 100 µM (inactive)
GI50 [28]: > 100 µM (inactive)
GI50 [29]: > 100 µM (inactive)
GI50 [30]: > 100 µM (inactive)
GI50 [31]: > 100 µM (inactive)
GI50 [32]: > 100 µM (inactive)
GI50 [33]: > 100 µM (inactive)
GI50 [34]: > 100 µM (inactive)
GI50 [35]: > 100 µM (inactive)
GI50 [36]: > 100 µM (inactive)
GI50 [37]: > 100 µM (inactive)
GI50 [38]: > 100 µM (inactive)
GI50 [39]: > 100 µM (inactive)
GI50 [40]: > 100 µM (inactive)
GI50 [41]: > 100 µM (inactive)
GI50 [42]: > 100 µM (inactive)
GI50 [43]: > 100 µM (inactive)
GI50 [44]: > 100 µM (inactive)
GI50 [45]: > 100 µM (inactive)
GI50 [46]: > 100 µM (inactive)
GI50 [47]: > 100 µM (inactive)
GI50 [48]: > 100 µM (inactive)
GI50 [49]: > 100 µM (inactive)
GI50 [50]: > 100 µM (inactive)
GI50 [51]: > 100 µM (inactive)
GI50 [52]: > 100 µM (inactive)

CC(C)N1CN(C(C(=O)N[C@@H]2C(=O)N3C2SC(C)(C)C3C(=O)O)c2ccccc2)CSC1=S (stereo not given in full)
GI50 [1]: 30.6 µM (inactive)
GI50 [2]: 22.1 µM
GI50 [3]: > 100 µM (inactive)
GI50 [4]: > 100 µM (inactive)
GI50 [5]: > 100 µM (inactive)
GI50 [6]: > 100 µM (inactive)
GI50 [7]: > 100 µM (inactive)
GI50 [8]: > 100 µM (inactive)
GI50 [9]: > 100 µM (inactive)
GI50 [11]: 46.9 µM (inactive)
GI50 [12]: 43.7 µM (inactive)
GI50 [13]: > 100 µM (inactive)
GI50 [14]: > 100 µM (inactive)
GI50 [15]: > 100 µM (inactive)
GI50 [16]: > 100 µM (inactive)
GI50 [17]: > 100 µM (inactive)
GI50 [18]: > 100 µM (inactive)
GI50 [20]: > 100 µM (inactive)
GI50 [22]: > 100 µM (inactive)
GI50 [53]: > 100 µM (inactive)
GI50 [23]: > 100 µM (inactive)
GI50 [54]: > 100 µM (inactive)
GI50 [24]: > 100 µM (inactive)
GI50 [55]: > 100 µM (inactive)
GI50 [25]: > 100 µM (inactive)
GI50 [26]: > 100 µM (inactive)
GI50 [27]: > 100 µM (inactive)
GI50 [28]: > 100 µM (inactive)
GI50 [29]: 83.9 µM (inactive)
GI50 [30]: > 100 µM (inactive)
GI50 [31]: > 100 µM (inactive)
GI50 [32]: > 100 µM (inactive)
GI50 [33]: > 100 µM (inactive)
GI50 [35]: > 100 µM (inactive)
GI50 [56]: > 100 µM (inactive)
GI50 [37]: 96.6 µM (inactive)
GI50 [38]: > 100 µM (inactive)
GI50 [39]: > 100 µM (inactive)
GI50 [57]: 27.8 µM (inactive)
GI50 [40]: 69.5 µM (inactive)
GI50 [41]: > 100 µM (inactive)
GI50 [58]: 48.5 µM (inactive)
GI50 [42]: > 100 µM (inactive)
GI50 [43]: > 100 µM (inactive)
GI50 [44]: > 100 µM (inactive)
GI50 [45]: > 100 µM (inactive)
GI50 [46]: > 100 µM (inactive)
GI50 [48]: > 100 µM (inactive)
GI50 [49]: > 100 µM (inactive)
GI50 [50]: > 100 µM (inactive)
GI50 [51]: > 100 µM (inactive)
GI50 [59]: > 100 µM (inactive)

COc1cc(OC)c(OC)cc1/C=N/NC(=O)N/N=C/c1cc(OC)c(OC)cc1OC
GI50 [1]: > 100 µM (inactive)
GI50 [2]: > 100 µM
GI50 [3]: > 100 µM (inactive)
GI50 [4]: > 100 µM (inactive)
GI50 [5]: > 100 µM (inactive)
GI50 [7]: > 100 µM (inactive)
GI50 [8]: > 100 µM (inactive)
GI50 [10]: > 100 µM (inactive)
GI50 [11]: > 100 µM (inactive)
GI50 [12]: > 100 µM (inactive)
GI50 [13]: > 100 µM (inactive)
GI50 [14]: > 100 µM (inactive)
GI50 [15]: > 100 µM (inactive)
GI50 [16]: > 100 µM (inactive)
GI50 [17]: 33.6 µM (inactive)
GI50 [18]: > 100 µM (inactive)
GI50 [20]: > 100 µM (inactive)
GI50 [22]: > 100 µM (inactive)
GI50 [53]: > 100 µM (inactive)
GI50 [23]: 91 µM (inactive)
GI50 [54]: > 100 µM (inactive)
GI50 [55]: > 100 µM (inactive)
GI50 [25]: > 100 µM (inactive)
GI50 [26]: > 100 µM (inactive)
GI50 [27]: > 100 µM (inactive)
GI50 [28]: > 100 µM (inactive)
GI50 [29]: > 100 µM (inactive)
GI50 [30]: > 100 µM (inactive)
GI50 [31]: 15.8 µM (inactive)
GI50 [32]: > 100 µM (inactive)
GI50 [33]: > 100 µM (inactive)
GI50 [34]: > 100 µM (inactive)
GI50 [35]: > 100 µM (inactive)
GI50 [56]: > 100 µM (inactive)
GI50 [37]: > 100 µM (inactive)
GI50 [38]: > 100 µM (inactive)
GI50 [39]: 49.9 µM (inactive)
GI50 [57]: 17.5 µM (inactive)
GI50 [40]: > 100 µM (inactive)
GI50 [41]: > 100 µM (inactive)
GI50 [58]: > 100 µM (inactive)
GI50 [42]: > 100 µM (inactive)
GI50 [43]: > 100 µM (inactive)
GI50 [44]: > 100 µM (inactive)
GI50 [45]: 72.4 µM (inactive)
GI50 [46]: > 100 µM (inactive)
GI50 [48]: > 100 µM (inactive)
GI50 [50]: > 100 µM (inactive)
GI50 [51]: > 100 µM (inactive)
GI50 [59]: > 100 µM (inactive)
GI50 [52]: > 100 µM (inactive)
